Several values for one entry are separate records, joined by “and”; a condition that tells them apart may be missing. Equal entries are not always repeated. Where two headings read alike, the source gives them in different places.
Experiments:
PpAChE2 [1] = conditions: cited from earlier work; for Km / Vmax: substrate hydrolysis by PpAChE2
PpAChE1 [2] = conditions: cited from earlier work; for Km / Vmax: substrate hydrolysis by PpAChE1
PpAChE3 [3] = conditions: cited from earlier work; for Km / Vmax: substrate hydrolysis by PpAChE3
PpAChE5 [4] = target: T1, PpAChE5 (Pardosa pseudoannulata, UniProt A0A1B1FIV8); test: Substrate hydrolysis kinetics of recombinant PpAChE5; type: biochemical; conditions: for Km / Vmax: substrate hydrolysis by PpAChE5, optimal pH
T1 sequence (A0A1B1FIV8 25-553): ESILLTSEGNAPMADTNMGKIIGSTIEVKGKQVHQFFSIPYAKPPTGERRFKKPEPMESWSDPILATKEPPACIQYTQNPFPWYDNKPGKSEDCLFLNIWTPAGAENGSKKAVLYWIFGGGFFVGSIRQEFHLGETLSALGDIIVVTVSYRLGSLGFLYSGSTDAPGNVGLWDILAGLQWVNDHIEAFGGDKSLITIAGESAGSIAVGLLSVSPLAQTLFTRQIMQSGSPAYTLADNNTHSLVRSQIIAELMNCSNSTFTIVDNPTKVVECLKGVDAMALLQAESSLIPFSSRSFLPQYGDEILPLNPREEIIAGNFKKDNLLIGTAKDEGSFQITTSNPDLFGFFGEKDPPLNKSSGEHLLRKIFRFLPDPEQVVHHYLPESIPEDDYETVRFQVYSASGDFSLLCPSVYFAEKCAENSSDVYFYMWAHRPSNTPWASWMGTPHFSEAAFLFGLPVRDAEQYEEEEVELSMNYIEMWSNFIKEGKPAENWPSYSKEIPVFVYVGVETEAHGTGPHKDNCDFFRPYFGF
Excerpt: (§1) As described previously, complete coding sequence of the new putative ace gene was subcloned into the expression vector pFastBac-HTa with its specific primers (Table 5) and verified by nucleotide sequencing. The vector with an enhanced green fluorescent protein (eGFP, GenBank accession number: AAK15492), which constructed previously in our laboratory was as a control. Using baculovirus-insect expression system, Sf9 cells which infected by the recombinant Bacmid DNAs were used for protein expression, and the baculovirus culture supernatants were collected as the crude enzyme. The culture supernatants of non-infectious Sf9 cells were used as the negative control.
(§2) The methods for enzyme biochemical properties assaying were performed as described previously. Fifty microliters of enzyme, 100 μL of DTNB (75 μM) and 100 μL of substrate at different concentrations were mixed in a 96-well microplate for the enzyme activities detecting. Using Molecular Devices Thermomax Kinetic Microplate Reader, the mixed solutions were monitored for 20 min in 30 s intervals at 405 nm and three replications were used to calculate the mean level of enzyme activity. Different pH of the mixed-reaction solutions were employed for detecting enzyme optimal pH condition. Under the optimal pH of enzyme, the Michaelis–Menten constant value (KM) and maximal reaction velocity (Vmax) for each substrate were determined by fitting the velocity (ν) and substrate concentration ([S], 20–2000 μM) data to ν = Vmax [S]/(KM + [S]) using Prism 5.0 (GraphPad Software, La Jolla, CA, USA). Protein concentration was measured by the Protein-dye Binding Method according to the Micro BCA Protein Assay Kit (ThermoFisher, Waltham, MA, USA) instruction.

PpAChE4 [5] = conditions: cited from earlier work; for Km / Vmax: substrate hydrolysis by PpAChE4
PpAChE2 [6] = conditions: cited from earlier work
PpAChE5 [7] = target: T1, PpAChE5; test: Inhibition of enzyme activity (IC50) of PpAChE5; type: biochemical; conditions: for IC50: 10 min preincubation with inhibitor
Excerpt: as §1, §2
To determine IC50 values of enzyme to different inhibitors, the enzyme was first incubated with an inhibitor at various concentrations ([I]) for 10 min. The residual enzyme activity (in reference to a mixture of the enzyme and buffer) was determined as above and plotted against −log10[I]. The IC50 value for each inhibitor was determined from nonlinear regression analysis of activity and −log10[I] data using Prism 5.0 (GraphPad Software, La Jolla, CA, USA). The bimolecular rate constant (ki) was determined by enzyme reaction premixed with various concentrations of an inhibitor and was fitted using Prism 5.0.

PpAChE3 [8] = conditions: cited from earlier work
PpAChE4 [9] = conditions: cited from earlier work
PpAChE1 [10] = conditions: cited from earlier work
PpAChE5 [11] = target: T1, PpAChE5; test: Inhibition kinetics (bimolecular rate constant ki) of PpAChE5; type: biochemical; conditions: ATC hydrolysis
Excerpt: as §1
The methods for enzyme biochemical properties assaying were performed as described previously. Fifty microliters of enzyme, 100 μL of DTNB (75 μM) and 100 μL of substrate at different concentrations were mixed in a 96-well microplate for the enzyme activities detecting. Using Molecular Devices Thermomax Kinetic Microplate Reader, the mixed solutions were monitored for 20 min in 30 s intervals at 405 nm and three replications were used to calculate the mean level of enzyme activity. […] Protein concentration was measured by the Protein-dye Binding Method according to the Micro BCA Protein Assay Kit (ThermoFisher, Waltham, MA, USA) instruction. […]

Row | Structure (SMILES) | Km (PpAChE2 [1]) [µM] | Vmax (PpAChE2 [1]) | Km (PpAChE1 [2]) [µM] | Vmax (PpAChE1 [2]) | Km (PpAChE3 [3]) [µM] | Vmax (PpAChE3 [3]) | Km (PpAChE5 [4]) [µM] | Vmax (PpAChE5 [4]) | Km (PpAChE4 [5]) [µM] | Vmax (PpAChE4 [5]) | IC50 (PpAChE2 [6]; PpAChE2, on ATC hydrolysis) [nM] | inhibition on ATC hydrolysis activity of PpAChE5 (PpAChE5 [7]; in words) | IC50 (PpAChE5 [7]; PpAChE5, on ATC hydrolysis) [nM] | IC50 (PpAChE3 [8]; PpAChE3, on ATC hydrolysis) [nM] | IC50 (PpAChE4 [9]; PpAChE4, on ATC hydrolysis) [nM] | IC50 (PpAChE1 [10]; PpAChE1, on ATC hydrolysis) [nM] | also measured
1 | CC(=O)SCC[N+](C)(C)C.[I-] [ATC, acetylthiocholine iodide] | 4410 ± 534 | 253.9 ± 20.4 b nmol/mg·min | 537 ± 63.4 | 112.6 ± 8.8 c nmol/mg·min | 42.9 ± 5.8 | 124.7 ± 11.5 c nmol/mg·min | 1300 ± 163 | 428.4 ± 29.2 a nmol/mg·min | 61.6 ± 7.5 | 86.6 ± 9.7 d nmol/mg·min |  |  |  |  |  |  | Vmax Ratio ATC vs. BTC (PpAChE2 [1]; PpAChE2): 1.09; Vmax Ratio ATC vs. PTC (PpAChE2 [1]; PpAChE2): 1.62; Vmax Ratio ATC vs. BTC (PpAChE1 [2]; PpAChE1): 1.18; Vmax Ratio ATC vs. PTC (PpAChE1 [2]; PpAChE1): 1.48; Vmax Ratio ATC vs. BTC (PpAChE3 [3]; PpAChE3): 3.09; Vmax Ratio ATC vs. PTC (PpAChE3 [3]; PpAChE3): 1.17; Vmax Ratio ATC vs. BTC (PpAChE5 [4]; PpAChE5): 4.6 and 4.68; Vmax Ratio ATC vs. PTC (PpAChE5 [4]; PpAChE5): 7.2 and 7.26; Vmax Ratio ATC vs. BTC (PpAChE4 [5]; PpAChE4): 0.82; Vmax Ratio ATC vs. PTC (PpAChE4 [5]; PpAChE4): 1.74
2 | CCCC(=O)SCC[N+](C)(C)C.[I-] [BTC, butyrylthiocholine iodide] | 4540 ± 326 | 233.9 ± 16.5 a nmol/mg·min | 859 ± 103 | 95.4 ± 12.8 b nmol/mg·min | 199 ± 22.3 | 40.3 ± 5.6 c nmol/mg·min | 1530 ± 118 | 91.6 ± 11.3 b nmol/mg·min | 269 ± 35.5 | 105.5 ± 8.9 b nmol/mg·min |  |  |  |  |  |  | Vmax Ratio BTC vs. BTC (PpAChE2 [1]; PpAChE2): 1.49; Vmax Ratio BTC vs. BTC (PpAChE1 [2]; PpAChE1): 1.25; Vmax Ratio BTC vs. BTC (PpAChE5 [4]; PpAChE5): 1.55; Vmax Ratio BTC vs. BTC (PpAChE4 [5]; PpAChE4): 2.12
3 | C=CC[N+](C)(C)c1ccc(CCC(=O)CCc2ccc([N+](C)(C)CC=C)cc2)cc1.[Br-].[Br-] [BW284C51, 1,5-bis(4-allyldimethylammoniumphenyl)-pentan-3-one dibromide] |  |  |  |  |  |  |  |  |  |  | 2540 ± 214 | strong inhibition | 471 ± 69.3 | 36.8 ± 5.3 | 73.6 ± 10.5 | 51.2 ± 7.6 | 
4 | CNC(=O)Oc1ccc2c(c1)[C@]1(C)CCN(C)[C@@H]1N2C [Eserine, eserine] |  |  |  |  |  |  |  |  |  |  | 1860 ± 251 | strong inhibition | 1160 ± 157 | 65.2 ± 18 | 245 ± 39.4 | 117 ± 20.6 | ki (PpAChE5 [11]): 6.24 ± 1.72 b ×10^−7M^−1min^−1
5 | CC(C)NP(=O)(NC(C)C)OP(=O)(NC(C)C)NC(C)C [ISO-OMPA, tetraisopropyl pyrophosphoramide] |  |  |  |  |  |  |  |  |  |  |  |  |  |  |  |  | IC50 (PpAChE2 [6]; PpAChE2, on BTC hydrolysis): 21700 ± 3260 nM; inhibition against BTC hydrolysis (PpAChE5 [7]; PpAChE5, BTC hydrolysis, in words): very weak inhibition; IC50 (PpAChE5 [7]; PpAChE5, on BTC hydrolysis): > 100000 nM; IC50 (PpAChE3 [8]; PpAChE3, on BTC hydrolysis): > 100000 nM; IC50 (PpAChE4 [9]; PpAChE4, on BTC hydrolysis): > 100000 nM; IC50 (PpAChE1 [10]; PpAChE1, on BTC hydrolysis): > 100000 nM
6 | CCC(=O)SCC[N+](C)(C)C.[I-] [PTC, propionylthiocholine iodide] | 4500 ± 319 | 156.8 ± 21.3 a nmol/mg·min | 1150 ± 134 | 76.2 ± 9.2 c nmol/mg·min | 504 ± 86.8 | 106.2 ± 15.1 b nmol/mg·min | 1550 ± 129 | 59.0 ± 7.2 cd nmol/mg·min | 279 ± 35.2 | 49.7 ± 8.4 d nmol/mg·min |  |  |  |  |  |  | 

Reference: PMC6152279, “Characterization of the Fifth Putative Acetylcholinesterase in the Wolf Spider, Pardosa pseudoannulata” (Molecules : A Journal of Synthetic Chemistry and Natural …, 2017)
